This test concerns the target T1, Human M4 (Homo sapiens, UniProt P08173).
T1 construct: expressed in transfected cells; host or cells: CHO-K1 (ATCC), co-transfected with chimeric G protein Gqi5
T1 sequence (P08173 1-479): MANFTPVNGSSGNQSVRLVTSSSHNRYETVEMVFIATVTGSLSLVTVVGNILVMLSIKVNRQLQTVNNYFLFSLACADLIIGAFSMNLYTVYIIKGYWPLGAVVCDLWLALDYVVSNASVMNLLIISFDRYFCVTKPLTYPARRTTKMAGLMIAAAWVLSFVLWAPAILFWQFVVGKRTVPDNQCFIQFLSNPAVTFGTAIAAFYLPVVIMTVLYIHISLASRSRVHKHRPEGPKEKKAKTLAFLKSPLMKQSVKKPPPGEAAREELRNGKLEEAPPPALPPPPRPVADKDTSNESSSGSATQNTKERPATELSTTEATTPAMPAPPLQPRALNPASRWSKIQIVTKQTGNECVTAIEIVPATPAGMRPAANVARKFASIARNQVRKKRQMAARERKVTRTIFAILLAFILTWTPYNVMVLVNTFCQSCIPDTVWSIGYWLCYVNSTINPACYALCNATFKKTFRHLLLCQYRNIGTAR
Put plainly: mAChR M4 cell-based functional assay (calcium flux, antagonism of EC80 acetylcholine response). Conditions: M4/Gqi5/CHO-K1 cells; for remaining activity at 30 µM: CHO-K1, % ACh maximum at 30 μM, read-out: Human M4 Emin; for IC50: decrease of response elicited by EC80 acetylcholine. On the procedure:
Human or rat M4 cDNA, along with the chimeric G protein Gqi5, were transfected into Chinese hamster ovary (CHO-K1) cells purchased from the American Type Culture Collection using Lipofectamine2000. M4/Gqi5/CHO cells were grown in Ham's F-12 medium containing 10% heat-inactivated fetal bovine serum (FBS), 20 mM HEPES, 500 μg/mL G418 sulfate, and 200 μg/mL Hygromycin B.
For high throughput measurement of agonist-evoked increases in intracellular calcium, CHO-K1 cells stably expressing muscarinic receptors were plated in growth medium lacking G418 and hygromycin at 15,000 cells/20 μL/well in Greiner 384-well black-walled, tissue culture (TC)-treated, clear-bottom plates (VWR). Cells were incubated overnight at 37° C. and 5% CO2. The next day, cells were washed using an ELX 405 (BioTek) with assay buffer; the final volume was then aspirated to 20 μL. Next, 20 μL of a 2.3 μM stock of Fluo-4/acetoxymethyl ester (Invitrogen, Carlsbad, Calif.), prepared as a 2.3 mM stock in DMSO and mixed in a 1:1 ratio with 10% (w/v) Pluronic F-127 and diluted in assay buffer, was added to the wells and the cell plates were incubated for 50 min at 37° C. and 5% CO2. Dye was removed by washing with the ELX 405 and the final volume was aspirated to 20 μL. Compound master plates were formatted in a 10 point concentration-response curve (CRC) format (1:3 dilutions) in 100% DMSO with a starting concentration of 10 or 1 mM using a BRAVO liquid handler (Agilent). Test compound CRCs were then transferred to daughter plates (240 nL) using the Echo acoustic plate reformatter (Labcyte, Sunnyvale, Calif.) and then diluted into assay buffer (40 μL) to a 2× stock using a Thermo Fisher Combi (Thermo Fisher Scientific, Waltham, Mass.).
Calcium flux was measured using the Functional Drug Screening System (FDSS) 6000 or 7000 (Hamamatsu Corporation, Tokyo, Japan) as an increase in the fluorescent static ratio. Compounds were applied to cells (20 μL, 2×) using the automated system of the FDSS at 2 seconds into the protocol and the data were collected at 1 Hz. At 143 s, 10 μL of an EC20 concentration of the muscarinic receptor agonist acetylcholine was added (5×), followed by the addition of 12 μL of an EC80 concentration of acetylcholine at the 268 s time point (5×). Agonist activity was analyzed as a concentration-dependent increase in calcium mobilization upon compound addition. Positive allosteric modulator activity was analyzed as a concentration-dependent increase in the EC20 acetylcholine response. Antagonist activity was analyzed as a concentration-dependent decrease in the EC80 acetylcholine response; for the purposes of the tables herein, an IC50 (inhibitory concentration 50) was calculated as a concentration-dependent decrease of the response elicited by an EC80 concentration of acetylcholine. Concentration-response curves were generated using a four-parameter logistical equation in XLFit curve fitting software (IDBS, Bridgewater, N.J.) for Excel (Microsoft, Redmond, Wash.) or Prism (GraphPad Software, Inc., San Diego, Calif.) or the Dotmatics software platform (Dotmatics, Bishop's Stortford, UK).
Compounds were synthesized as described above. Activity (IC50 and Emin) was determined in the mAChR M4 cell-based functional assay as described above and the data are shown in Table 2.
(In general: Calcium assays in cells follow changes in intracellular calcium, usually with a dye or a luminescent sensor.)

In general, IC50 refers to the concentration at which inhibition is half-maximal.

Turning to `[2H]C([2H])(C1CCOCC1)N1C[C@H]2C[C@H](Nc3nnc(-c4ccccc4)cc3C)C[C@H]2C1` [compound 24, (3aR,5s,6aS)-N-(4-methyl-6-phenylpyridazin-3-yl)-2-((tetrahydro-2H-pyran-4-yl)methyl-d2)octahydrocyclopenta[c]pyrrol-5-amine], the remaining activity at 30 µM was found to be 4% and the IC50 is 1.63 nM.
Taken in the same sequence, the figures for `[2H]C([2H])(C1CCOCC1)N1C[C@H]2C[C@H](Nc3nnc(-c4cc(F)ccc4F)cc3C(F)F)C[C@H]2C1` [compound 25, (3aR,5s,6aS)-N-(4-(difluoromethyl)-6-(2,5-difluorophenyl)pyridazin-3-yl)-2-((tetrahydro-2H-pyran-4-yl)methyl-d2)octahydrocyclopenta[c]pyrrol-5-amine] were 3% and 1.68 nM.
In the case of `[2H]C([2H])(C1CCOCC1)N1C[C@H]2C[C@H](Nc3nnc(-c4cc(F)ccc4C)cc3C3CC3)C[C@H]2C1` [compound 26, (3aR,5s,6aS)-N-(4-cyclopropyl-6-(5-fluoro-2-methylphenyl)pyridazin-3-yl)-2-((tetrahydro-2H-pyran-4-yl)methyl-d2)octahydrocyclopenta[c]pyrrol-5-amine], the remaining activity at 30 µM was 3% and the IC50 was determined as 263 nM.
With `[2H]C([2H])(C1CCOCC1)N1C[C@H]2C[C@H](Nc3nnc(-c4cc(F)ccc4F)cc3C3CC3)C[C@H]2C1` [compound 27, (3aR,5s,6aS)-N-(4-cyclopropyl-6-(2,5-difluorophenyl)pyridazin-3-yl)-2-((tetrahydro-2H-pyran-4-yl)methyl-d2)octahydrocyclopenta[c]pyrrol-5-amine], the remaining activity at 30 µM worked out at 4% and the IC50 was 719 nM.
In the case of `[2H]C([2H])(C1CCOCC1)N1C[C@H]2C[C@H](Nc3nnc(N4CCC(F)(F)CC4)cc3C3CC3)C[C@H]2C1` [compound 28, (3aR,5s,6aS)-N-(4-cyclopropyl-6-(4,4-difluoropiperidin-1-yl)pyridazin-3-yl)-2-((tetrahydro-2H-pyran-4-yl)methyl-d2)octahydrocyclopenta[c]pyrrol-5-amine], the remaining activity at 30 µM turned out to be 3% and the half-maximal inhibitory concentration (IC50) was determined as 186 nM.
Taken in the same sequence, the figures for `[2H]C([2H])(C1CCOCC1)N1C[C@H]2C[C@H](Nc3nnc(N4CCC(F)(F)CC4)cc3C3CCC3)C[C@H]2C1` [compound 29, (3aR,5s,6aS)-N-(4-cyclobutyl-6-(4,4-difluoropiperidin-1-yl)pyridazin-3-yl)-2-((tetrahydro-2H-pyran-4-yl)methyl-d2)octahydrocyclopenta[c]pyrrol-5-amine] were 2% and 60.7 nM.
Taken in the same sequence, the figures for `[2H]C([2H])(C1CCOCC1)N1C[C@H]2C[C@H](Nc3nnc(-c4cc(F)ccc4F)cc3C3CCC3)C[C@H]2C1` [compound 30, (3aR,5s,6aS)-N-(4-cyclobutyl-6-(2,5-difluorophenyl)pyridazin-3-yl)-2-((tetrahydro-2H-pyran-4-yl)methyl-d2)octahydrocyclopenta[c]pyrrol-5-amine] were 2% and 116 nM.
The corresponding values for `[2H]C([2H])(C1CCOCC1)N1C[C@H]2C[C@H](Nc3nnc(-c4cc(F)ccc4C)cc3C3CCC3)C[C@H]2C1` [compound 31, (3aR,5s,6aS)-N-(4-cyclobutyl-6-(5-fluoro-2-methylphenyl)pyridazin-3-yl)-2-((tetrahydro-2H-pyran-4-yl)methyl-d2)octahydrocyclopenta[c]pyrrol-5-amine] are 3% and 34.5 nM.
With `[2H]C([2H])(C1CCOCC1)N1C[C@H]2C[C@H](Nc3cc(C(F)F)c(-c4cc(F)ccc4C)nn3)C[C@H]2C1` [compound 32, (3aR,5s,6aS)-N-(5-(difluoromethyl)-6-(5-fluoro-2-methylphenyl)pyridazin-3-yl)-2-((tetrahydro-2H-pyran-4-yl)methyl-d2)octahydrocyclopenta[c]pyrrol-5-amine], the remaining activity at 30 µM was found to be 3% and the IC50 amounted to 2.76 nM.
In the case of `[2H]C([2H])(C1CCOCC1)N1C[C@H]2C[C@H](Nc3nnc(-c4cc(F)cc(F)c4F)cc3C3CC3(F)F)C[C@H]2C1` (stereo partly drawn) [compound 33, (3aR,5s,6aS)-N-(4-(2,2-difluorocyclopropyl)-6-(2,3,5-trifluorophenyl)pyridazin-3-yl)-2-((tetrahydro-2H-pyran-4-yl)methyl-d2)octahydrocyclopenta[c]pyrrol-5-amine], the remaining activity at 30 µM came to 3% and the IC50 was determined as 6.4 nM.
For `[2H]C([2H])(C1CCOCC1)N1C[C@H]2C[C@H](Nc3nnc(-c4cc(F)cc(F)c4F)cc3C3CC3)C[C@H]2C1` [compound 34, (3aR,5s,6aS)-N-(4-cyclopropyl-6-(2,3,5-trifluorophenyl)pyridazin-3-yl)-2-((tetrahydro-2H-pyran-4-yl)methyl-d2)octahydrocyclopenta[c]pyrrol-5-amine], the remaining activity at 30 µM worked out at 2% and the half-inhibitory concentration (IC50) stood at 5.05 nM.
The corresponding values for `Cc1cc(N[C@H]2C[C@@H]3CN(CC4CCOCC4)C[C@@H]3C2)nnc1-c1cc(F)cc(F)c1F` [compound 35, (3aR,5s,6aS)-N-(5-methyl-6-(2,3,5-trifluorophenyl)pyridazin-3-yl)-2-((tetrahydro-2H-pyran-4-yl)methyl)octahydrocyclopenta[c]pyrrol-5-amine] are 3% and 0.5 nM.
The corresponding values for `[2H]C([2H])(C1CCOCC1)N1C[C@H]2C[C@H](Nc3nnc(-c4cc(F)cc(F)c4F)cc3C(C)(C)C)C[C@H]2C1` [compound 36, (3aR,5s,6aS)-N-(4-(tert-butyl)-6-(2,3,5-trifluorophenyl)pyridazin-3-yl)-2-((tetrahydro-2H-pyran-4-yl)methyl-d2)octahydrocyclopenta[c]pyrrol-5-amine] are 4% and 1030 nM.
Taken in the same sequence, the figures for `[2H]C([2H])(C1CCOCC1)N1C[C@H]2C[C@H](Nc3cc(C)c(-c4cc(F)cc(F)c4F)nn3)C[C@H]2C1` [compound 37, (3aR,5s,6aS)-N-(5-methyl-6-(2,3,5-trifluorophenyl)pyridazin-3-yl)-2-((tetrahydro-2H-pyran-4-yl)methyl-d2)octahydrocyclopenta[c]pyrrol-5-amine] were 3% and 0.69 nM.
Consider `[2H]C([2H])(C1CCOCC1)N1C[C@H]2C[C@H](Nc3cc(C4(C(F)(F)F)CC4)c(-c4cc(F)c(F)cc4F)nn3)C[C@H]2C1` [compound 38, (3aR,5s,6aS)-2-((tetrahydro-2H-pyran-4-yl)methyl-d2)-N-(5-(1-(trifluoromethyl)cyclopropyl)-6-(2,4,5-trifluorophenyl)pyridazin-3-yl)octahydrocyclopenta[c]pyrrol-5-amine], for which the remaining activity at 30 µM stood at 3% and the IC50 came out at 46.3 nM.

For the origin of these results see US20230122344A1, “ANTAGONISTS OF THE MUSCARINIC ACETYLCHOLINE RECEPTOR M4” (Vanderbilt University, priority 2019, published 2023).
